Source: US9474790B2, “Stable, protracted GLP-1/glucagon receptor co-agonists for medical use” (Novo Nordisk A/S, priority 2013, dated 2016)
pIC50: −log10 of the molar value. Numbered stars: 1 amine (or outer) side, 2 acyl side, 3 side chain; on linkers, the order of the positions; unused ones are H or OH. Square brackets hold non-standard residues; d marks the D form. Side chains are listed from the residue outwards. Peptide text beside a SMILES is read from it. * marks the point of attachment. C18 diacid = O=C(O)CCCCCCCCCCCCCCCCC(=O)*; γGlu = O=C(O)[C@H](CCC(=O)[*:2])N[*:1]; Ac4c = NC1(C(=O)O)CCC1

Molecular target: T1, human glucagon receptor (Homo sapiens, UniProt P47871)
T1 construct: expressed in transfected cells; host or cells: BHK cells (parent BHK570, CRE luciferase clone BHK/KZ10-20-48), clone pLJ6'-4-25
T1 sequence (P47871 26-477): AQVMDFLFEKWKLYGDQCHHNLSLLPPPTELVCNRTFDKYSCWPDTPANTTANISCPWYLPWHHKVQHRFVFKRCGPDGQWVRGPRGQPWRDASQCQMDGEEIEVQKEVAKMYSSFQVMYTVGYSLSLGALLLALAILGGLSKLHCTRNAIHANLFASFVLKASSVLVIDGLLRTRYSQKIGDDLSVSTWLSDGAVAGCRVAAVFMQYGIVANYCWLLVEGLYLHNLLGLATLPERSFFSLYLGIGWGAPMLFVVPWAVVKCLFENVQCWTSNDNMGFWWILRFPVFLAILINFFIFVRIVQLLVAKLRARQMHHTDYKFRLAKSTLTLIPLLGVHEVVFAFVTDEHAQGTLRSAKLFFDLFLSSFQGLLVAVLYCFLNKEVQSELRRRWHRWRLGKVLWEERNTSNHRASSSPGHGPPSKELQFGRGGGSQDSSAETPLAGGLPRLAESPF
Assay: Glucagon receptor binding, 125I-glucagon displacement SPA on isolated membranes
Settings: displacement of 125I-glucagon from membranes; read-out: IC50 GlucR
Summary of the method: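 Displacement IC50 derived by non-linear regression of SPA counts after 2 h, 25 °C incubation of compound with [125I]-glucagon (480 pM solution, 25 μl) and membranes of hGCGR-transfected BHK cells. Buffer was HEPES pH 7.4 with ovalbumin; serum albumin was held at 0.001% max or 0.2% final.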

pIC50: 9.22
SMILES: CC(C)C[C@H](NC(=O)[C@H](Cc1ccc(O)cc1)NC(=O)[C@H](CCCCN)NC(=O)[C@H](CO)NC(=O)[C@H](CC(C)C)NC(=O)[C@H](CC(=O)O)NC(=O)[C@H](CO)NC(=O)[C@@H](NC(=O)[C@H](Cc1ccccc1)NC(=O)[C@@H](NC(=O)CNC(=O)[C@H](CCC(N)=O)NC(=O)C1(NC(=O)[C@@H](N)Cc2c[nH]cn2)CCC1)[C@@H](C)O)[C@@H](C)O)C(=O)N[C@@H](CCC(=O)O)C(=O)N[C@@H](CO)C(=O)N[C@@H](CCCCN)C(=O)N[C@@H](CCCNC(=N)N)C(=O)N[C@@H](C)C(=O)N[C@@H](CCCNC(=N)N)C(=O)N[C@@H](CCC(=O)O)C(=O)N[C@@H](Cc1ccccc1)C(=O)N[C@H](C(=O)N[C@@H](CCC(N)=O)C(=O)N[C@@H](Cc1c[nH]c2ccccc12)C(=O)N[C@@H](CC(C)C)C(=O)N[C@@H](CC(C)C)C(=O)N[C@@H](CCCCNC(=O)CC[C@H](NC(=O)CC[C@H](NC(=O)[C@H](CO)NC(=O)[C@H](CCC(=O)O)NC(=O)[C@H](CO)NC(=O)CC[C@H](NC(=O)CC[C@H](NC(=O)CCCCCCCCCCCCCCCCC(=O)O)C(=O)O)C(=O)O)C(=O)O)C(=O)O)C(=O)N[C@H](C(N)=O)[C@@H](C)O)C(C)C [Example 68, N^ε28-[(4S)-4-carboxy-4-[[(4S)-4-carboxy-4-[[(2S)-2-[[(2S)-4-carboxy-2-[[(2S)-2-[[(4S)-4-carboxy-4-[[(4S)-4-carboxy-4-(17-carboxyheptadecanoylamino)butanoyl]amino]butanoyl]amino]-3-hydroxypropanoyl]amino]butanoyl]amino]-3-hydroxypropanoyl]amino]butanoyl]amino]butanoyl]-[Acb2,Leu10,Glu15,Lys17,Arg20,Glu21,Leu27,Lys28]-Glucagon amide] (H-H[Ac4c]QGTFTSDLSKYLESKRAREFVQWLLK([γGlu-γGlu-Ser-Glu-Ser-γGlu-γGlu-C18 diacid])T-NH2; N-terminus assumed)
